According to PMC11802874, “The hypolipidemic effect of MI-883, the combined CAR agonist/ PXR antagonist, in diet-induced hypercholesterolemia model” (Nature Communications, 2025):
Where “and” joins values, the source holds several entries; their conditions need not be identical. Equal values may be shown once.

Columns and labels:
CAR-LBD = target: T1, CAR-LBD (Homo sapiens, UniProt Q14994); assay: MARCoNI CAR-LBD coregulator interaction array; type: biochemical; conditions: 100 μM
T1 construct: HIS-tagged CAR-LBD (ThermoFisher Sciences, Cat. No PV4836); purchased ThermoFisher PV4836
T1 sequence (Q14994 109-348 isoform Q14994-2 limits assumed): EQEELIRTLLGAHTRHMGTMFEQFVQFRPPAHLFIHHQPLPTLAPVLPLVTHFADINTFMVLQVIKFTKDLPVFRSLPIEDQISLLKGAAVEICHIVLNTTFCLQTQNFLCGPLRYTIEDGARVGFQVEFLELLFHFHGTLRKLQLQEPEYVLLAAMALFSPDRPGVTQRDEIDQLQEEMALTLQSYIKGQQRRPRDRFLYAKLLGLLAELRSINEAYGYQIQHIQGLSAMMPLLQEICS
Method: The reaction was performed in a fully automated microarray processing and fluorescent imaging platform (PamStation12) at 20 °C for 80 cycles (two cycles per minute). After removal of the unbound CAR-LBD receptor by washing each array with 25 µl Tris-buffered Saline (TBS) buffer, fluorescent images of the PamChip microarrays were obtained using the PamStation12, and then were analyzed for quantification of CAR binding using BioNavigator software (PamGene International B.V.). For data and statistical analysis, BioNavigator was used.
Modulation index (MI) is the log10-transformed relative binding value, which is calculated by the compound’s binding value, relative to the vehicle control (DMSO) binding value.

[1] = tested on: humanized PXR-CAR-CYP3A4/3A7 mice, liver; assay: RT-qPCR and Western blotting of liver samples (HFD study); type: in vivo, mouse
Method: RT-qPCR expression studies were performed on liver samples from eleven humanized PXR-CAR-CYP3A4/3A7 mice that were fed a high-fat diet and treated with 5 mg/kg MI-883 three times per week for four weeks. Specific TaqMan probes were used, following the protocol described in Supplementary Table S3.
Western blotting experiments have been performed in BioRad instruments with BioRad precasted gels and reagents. Antibodies are listed in Supplementary Table S4. Densitometry has been done using ChemiDoc™ MP Imaging System and software (BioRad, Hercules, USA). Data are presented as relative protein expression to control samples. For protein expression quantification, areas in histograms have been calculated and related to a reference protein.

[2] = Stability in human plasma; type: in vitro ADME; conditions: plasma (legend: pooled human serum), read-out: Stability in human plasma, t1/2
Method: Plasma protein binding, and stability in human and mouse plasma have been tested as previously described. Supplementary Figure 1. […] Four time points over 120 minutes have been analyzed. […] Compounds were tested in triplicate with or without NADPH.

[3] = Repeated dose 28-day oral toxicity study in rats (OECD 407, non-GLP); type: in vivo; conditions: rat, in vivo, 10 mg/kg; 28 days per os, rats
Method: (§1) A repeated dose 28-day oral toxicity study in Rats (Non–GLP Study) was carried out according to OECD Guideline for Testing of Chemicals No. 407 and relevant Test Facility SOPs at the Institute of Physiology, Academy of Sciences, Czech Republic as a service. The report is available after request. […] No clinical changes were observed during the administration period or the recovery period in the two selected groups. […]

rats = assay: as above; type: in vivo; conditions: up to 10 mg/kg
Method: as §1

[4] = FigS13, individual animals, relative to control
[5] = HFD study, Western blotting, form not given
[6] = hPXR/hCAR/hCYP3A4/7 mice, relative to control, individual animals

## NC(=O)c1cc(Cn2cc(-c3c(-c4ccc(Cl)cc4)nc4cc(F)ccn34)nn2)ccc1Cl [MI-883, 2-chloro-5-((4-(2-(4-chlorophenyl)-7-fluoroimidazo[1,2-a]pyridin-3-yl)-1H-1,2,3-triazol-1-yl)methyl)benzamide]
CAR-LBD
  CAR-coregulator interaction profile: attracts several coactivators, including NCOA1, NCOA2, and NCOA3 proteins
[1]; [4]
  Acaca mRNA (RT-qPCR): 0.62 and 1.24 and 0.73 and 1.27 and 0.85 and 0.6 and 0.7 and 0.51 and 0.8 and 0.28 and 0.34
  Cd36 mRNA (RT-qPCR): 0.88 and 1.19 and 0.76 and 1.31 and 0.8 and 0.72 and 1.01 and 0.19 and 1.11
  Cpt1a mRNA (RT-qPCR): 1.05 and 0.92 and 2.34 and 0.85 and 1.37 and 0.77 and 1.27 and 0.96 and 1.08 and 0.81 and 0.88
  FaSN mRNA (RT-qPCR): 0.51 and 0.56 and 0.8 and 0.98 and 0.62 and 0.37 and 0.54 and 0.38 and 0.73 and 0.14 and 0.71
  Plin2 mRNA (RT-qPCR): 0.41 and 0.63 and 0.49 and 0.9 and 0.62 and 0.85 and 0.58 and 0.57 and 1 and 0.16 and 0.74
  Pnpla3 mRNA (RT-qPCR): 1.72 and 1.4 and 0.48 and 1.37 and 0.96 and 0.84 and 0.35 and 0.25 and 1.49 and 0.03 and 1.94
  Ppara mRNA (RT-qPCR): 0.97 and 0.71 and 1.1 and 0.18 and 1.04
  Scd1 mRNA (RT-qPCR): 0.36 and 0.67 and 0.33 and 0.76 and 0.51 and 0.6 and 0.47 and 0.34 and 0.52 and 0.56
[1]; HFD study, P = 0.0036
  liver Scd1 mRNA, RT-qPCR (n = 11): significantly downregulated
[1]; HFD study, P = 0.007 and P = 0.018
  liver Fasn and Plin2 mRNA, RT-qPCR: significantly downregulated
[1]; HFD study, Western blotting
  liver Cyp7a1 and Cyp8b1 proteins: significant upregulation
  liver Insig1 prot, individual samples: 3.8 and 3.3 and 3.1 and 2.9
  liver Srebp1 120 kDa protein or mature nuclear fragments (mSrebp1): did not see any significant decrease
[1]; HFD study, Western blotting, relative to control
  liver Mrp4 prot, individual samples: 1.89 and 1.6214 and 2.1487 and 1.571
[1]; [5]
  liver Srebp1/2 protein, lower block, first control/MI-883 pair: 1.8 and 1.6 and 1.7 and 1.1
  liver Srebp1/2 protein, lower block, second control/MI-883 pair: 0.6 and 0.7 and 0.5
  liver Srebp1/2 protein, upper block, second control/MI-883 pair: 1.7 and 1.5 and 1.1 and 1.2
[1]; HFD study, effect is not significant
  liver mature nuclear mSrepb2 protein: may decrease
[1]; HFD study, relative to control
  liver Cyp7a1 mRNA, RT-qPCR, individual animals: 0.7586 and 0.4023 and 0.5977 and 0.2759 and 0.5402 and 0.954 and 0.4943 and 0.9885 and 0.5172
  liver Insig1 mRNA, RT-qPCR, individual animals: 1.68 and 2.22 and 0.72 and 0.43 and 1.13 and 1.06 and 1.18 and 2.34 and 1.52 and 1.27 and 0.68
  liver Mrp4 mRNA, RT-qPCR, individual animals: 4.091 and 6.648 and 4.182 and 4.443 and 4.045 and 2.545 and 4.341 and 10.0455 and 5.239 and 3.409
  liver Srebf1 mRNA, RT-qPCR, individual animals: 0.7619 and 0.9619 and 0.5619 and 0.6 and 1.105 and 0.7714 and 0.7143 and 0.8857 and 0.819 and 0.4571
  liver Sult2a1 mRNA, RT-qPCR, individual animals: 4.077 and 3.288 and 1.404 and 2.538 and 0.8846 and 1.615
  liver Ugt1a1 mRNA, RT-qPCR, individual animals: 1.852 and 2.477 and 1.455 and 1.284 and 1 and 1.58 and 1.148 and 2.057 and 2 and 2.17 and 0.8977
  liver Ugt2b34 mRNA, RT-qPCR, individual animals: 1.412 and 2.106 and 2.063 and 1.118 and 1.379 and 0.7926
[1]; PXR-CAR-CYP3A4/3A7 mice (Fig. 7a)
  liver murine Gadd45b mRNA and Meg3 lncRNA: statistically significant upregulation
[1]; [6]
  Bcl2 expression (Fig. 7a): 0.87 and 0.95 and 0.93 and 1.25 and 1.35 and 0.29
  Cdkn1a expression (Fig. 7a): 1.39 and 0.41 and 0.43 and 0.27 and 1.57 and 0.35
  Foxm1 expression (Fig. 7a): 2.03 and 1.26 and 1.41 and 1.28 and 1.37 and 0.42
  Gadd45b expression (Fig. 7a): 2.07 and 7.83 and 4.06 and 7.82 and 5.69 and 2.44
  Mcl1 expression (Fig. 7a): 0.58 and 1.09 and 0.6 and 1.16 and 0.84 and 0.26
  Meg3 expression (Fig. 7a): 2.24 and 7.88 and 3.05 and 3.57 and 2.39
  Mki67 expression (Fig. 7a): 1.7 and 1.18 and 1.43 and 1.11 and 1.31 and 0.71
  Pcna expression (Fig. 7a): 0.78 and 1.24 and 0.66 and 0.89 and 0.57 and 0.36
[2]
  half-life at 1 µM: > 2 h
[3]
  NOAEL at 28 days: > 10 mg/kg
rats
  toxicity in 28-day oral study in rats: no toxicity
rats; listed as MI833
  toxicity in 28-day oral study in rats: No clinical signs of toxicity
